Experimental findings from publication PMC3740683, “ML212: A small-molecule probe for investigating fluconazole resistance mechanisms in Candida albicans” (Beilstein Journal of Organic Chemistry, 2013) are described below.

One assay deals with C. albicans CaCi-2. Description: Primary screen and dose-response retest: CaCi-2 with 8 µg/mL fluconazole (Alamar Blue growth). Type of assay: cell-based, Candida albicans. The settings on record: 37 °C, 48 hours, with test compound and 8 µg/mL (26 µM) fluconazole, average of at least three independent experiments in duplicate, inactive = negligible activity at concentrations below 26 µM; for IC50: Candida albicans, CACI2. The method, then: All of the compounds prepared above were evaluated for their ability to chemosensitize the C. albicans test strains CaCi-2 and CaCi-8 towards fluconazole. […] The DMSO/fluconazole combination served as an internal control.
Protocols for cellular assays
Primary screen and dose-response retest: CaCi-2 with 8 µg/mL fluconazole […]
Clear, flat-bottom, black, 384-well plates (Corning Catalog no. 3712BC; Lot no. […]
DMSO; Fluconazole (Sequoia Research Products Ltd) 2 mg/mL stock solution in PBS; […]
(AG Scientific Catalog no. DAL 1100; Lot no.151016SA); PBS without calcium and magnesium (Cellgro Catalog no. 21-040-CV)
(§1) Synthetic defined growth medium
(§2) RPMI 1640 medium, (powder without sodium bicarbonate; Invitrogen Catalog no. […]
no. 028KO760); Glucose 40% (w/v) in water (Sigma Catalog no. G-5400); MOPS buffer […]
1) Prepare 1× RPMI medium by dissolving 10.4 grams powdered medium in 800 […]
(§3) 2) Add 34.52 g MOPS. While stirring, adjust pH to 7.0 with 10 N NaOH.
(§4) 3) Add 10 mL uridine solution, 50 mL glucose solution, adjust final volume to 1000 […]
Test Strain: C. albicans CaCi-2
1) Inoculate 500 µL of strain from cryopreserved stock into a 250 mL shaker flask containing 30 mL growth medium. Shake at 30 °C overnight.
2) Read OD 600 of 1 mL fungal culture in a cuvette using a standard optical density reader (Eppendorf BioPhotometer Plus), with growth medium as a background […]
3) Dilute to desired volume of fungal inoculums according to the following formula:
(1/OD measured) × (desired final volume of inoculum) × 0.3 = volume of fungal culture (µL) to add to desired volume of growth medium. When added to media in wells, this yields a calculated starting OD of the fungal inoculum of 0.00015.
1) Add fluconazole stock solution to fungal inoculum to achieve a final concentration […]
2) Add Pen/Strep at 0.1 mL per 10 mL media (1% v/v).
3) Use a Thermo Combi nL to dispense 20 µL/well of assay media into all wells.
4) Pin 25 nL test compound from compound plates into assay plates using CyBi- […]
5) Dispense 20 µL/well of culture into the assay media in all wells.
6) Incubate plates in a humidified (90% humidity) Liconic incubator at 37 °C without […]
7) Dilute Alamar Blue Reagent 1:40 in Ca/Mg-free PBS.
8) To all plates, add 5 µL/well of the diluted Alamar to a final dilution factor of 1:200.
9) Incubate the plates for an additional 2 hours.
10) Read the relative fluorescence intensity (RFU) of wells on a standard plate reader as a measure of relative fungal growth. EnVision (Perkin Elmer) plate reader setup: Ex 544 nm, Em 590 nm, bandwidth 12 nm, top read. […]
For orientation: Resazurin is reduced to fluorescent resorufin, in cell work by metabolically active cells.

The next assay concerns C. albicans CaCi-8. Description: Secondary assay 1: CaCi-8 with 8 µg/mL fluconazole (Alamar Blue growth). The settings on record: for IC50: Candida albicans, CACI8, 48 h, read-out: CaCi-8 IC50; for CaCi-8 IC50: 37 °C, 48 hours, with test compound and 8 µg/mL (26 µM) fluconazole, average of at least three independent experiments in duplicate, inactive = negligible activity at concentrations below 26 µM. Type of assay: cell-based, Candida albicans. The method, then: All of the compounds prepared above were evaluated for their ability to chemosensitize the C. albicans test strains CaCi-2 and CaCi-8 towards fluconazole. […] The DMSO/fluconazole combination served as an internal control. […]
(1/OD measured) × (desired final volume of inoculum) × 0.3 = volume of fungal culture (µL) to add to desired volume of growth medium. When added to media in wells, this yields a calculated starting OD of the fungal inoculum of 0.00015. […]
3) Use a Thermo Combi nL to dispense 20 µL/well of assay media into all wells. […]
EnVision (Perkin Elmer) plate reader setup: Ex 544 nm, Em 590 nm, bandwidth 12 nm, top read.
Secondary assay 1: CaCi-8 with 8 µg/mL fluconazole […]
35808016); geldanamycin (AG Scientific Catalog no. […]
PBS w/o calcium and magnesium (Cellgro Catalog no. 21-040-CV)
as §1, §2
no. 028K0760); glucose 40% (w/v) in water (Sigma Catalog no. G-5400); MOPS buffer […]
1) Prepare 1× RPMI medium by dissolving 10.4 g powdered medium in 800 mL […]
as §3, §4
Test strain: C. albicans CaCi-8
1) Inoculate 500 µL of strain from cryopreserved stock into a 250 mL shaker flask containing 30 mL growth medium. Shake at 30 °C overnight (16 hours).
2) Read OD 600 of 1 mL of fungal culture in a cuvette using a standard optical density reader (Eppendorf BioPhotometer Plus), with growth medium as a […]
3) Dilute to a desired volume of fungal inoculum according to following formula: […]
1) Add fluconazole stock solution to fungal inoculum to achieve 8 µg/mL.
2) Add Pen/Strep to media to 1% concentration.
4) Dispense geldanamycin in positive control wells using Thermo Combi nL for a final concentration of 3 µM.
5) Then, pin 100 nL of test compound from compound plates into assay plates using a CyBi-Well pin tool.
6) Dispense 20 µL/well of culture into the assay media in all wells.
7) Incubate the plates in a humidified (90% humidity) Liconic incubator at 37 °C without agitation for 48 hours.
8) Dilute Alamar Blue 1:40 in Ca/Mg-free PBS.
9) To all plates, add 5 µL/well of the diluted Alamar Blue to plates to a final dilution […]
10) Incubate the plates for 2 hours. […]

In general, IC50 refers to the point on the concentration scale where inhibition reaches its midpoint. On to `COC(=O)Cn1nc(-c2ccccc2)c2cc(C)ccc21` [Compound 11], for which the IC50 in the assay on C. albicans CaCi-2 was found to be 5.2 ± 2.2 µM; in the assay with C. albicans CaCi-8, 8.2 ± 3.2 µM.
With `COC(=O)Cn1nc(-c2ccccc2)c2cc(OC)ccc21` [Compound 12], the IC50 with C. albicans CaCi-2 was 14.9 ± 5.7 µM; in the assay on C. albicans CaCi-8, 22.1 ± 6.2 µM.
Regarding `COC(=O)Cn1nc(-c2ccccc2)c2cc(F)ccc21` [Compound 13], the IC50 in the assay with C. albicans CaCi-2 was 11.2 ± 7.2 µM. Also, the “CaCi-8 IC50” value in the assay on C. albicans CaCi-8 is “inactive”.
In the case of `COC(=O)Cn1nc(-c2ccccc2)c2cc(Cl)ccc21` [Compound 14], the “CaCi-2 IC50” value in the assay with C. albicans CaCi-2 was “inactive”. Moreover, the “CaCi-8 IC50” value in the assay on C. albicans CaCi-8 is “inactive”.
Turning to `COC(=O)Cn1nc(-c2ccccc2)c2ccc(C)cc21` [Compound 15], in the assay with C. albicans CaCi-2, the IC50 came out at 5.9 ± 3.1 µM. In addition, the “CaCi-8 IC50” value in the assay on C. albicans CaCi-8 is “inactive”.
As to `COC(=O)Cn1nc(-c2ccccc2)c2ccc(OC)cc21` [Compound 16], the IC50 in the assay on C. albicans CaCi-2 turned out to be 9.5 ± 2.5 µM; in the assay on C. albicans CaCi-8, 12.4 ± 0.5 µM.
In the case of `COC(=O)Cn1nc(-c2ccccc2)c2ccc(Cl)cc21` [Compound 17], the results for the IC50 in the assay on C. albicans CaCi-2 and in the assay on C. albicans CaCi-8 were 4 ± 1.3 µM and 8.4 ± 0.5 µM, respectively.
With `COC(=O)Cn1nc(-c2ccccc2)c2ccc(C(F)(F)F)cc21` [Compound 18], the “CaCi-2 IC50” value in the assay on C. albicans CaCi-2 was “inactive”. Moreover, the “CaCi-8 IC50” value in the assay on C. albicans CaCi-8 is “inactive”.
On to `COC(=O)Cn1nc(-c2ccccc2)c2cccc(C(F)(F)F)c21` [Compound 19], for which the “CaCi-2 IC50” value in the assay with C. albicans CaCi-2 is “inactive”. The “CaCi-8 IC50” value in the assay with C. albicans CaCi-8 is “inactive”.
As for `COC(=O)Cn1nc(-c2ccccc2)c2cccnc21` [Compound 20], in the assay with C. albicans CaCi-2, the “CaCi-2 IC50” value is “inactive”. In addition, the “CaCi-8 IC50” value in the assay on C. albicans CaCi-8 is “inactive”.
For `COC(=O)Cn1ncc2ccccc21` [Compound 21], the “CaCi-2 IC50” value in the assay with C. albicans CaCi-2 is “inactive”. Moreover, in the assay with C. albicans CaCi-8, the “CaCi-8 IC50” value was “inactive”.
With `CCc1nn(CC(=O)OC)c2ccccc12` [Compound 22], in the assay on C. albicans CaCi-2, the “CaCi-2 IC50” value is “inactive”. Also, the “CaCi-8 IC50” value in the assay with C. albicans CaCi-8 is “inactive”.
Regarding `COC(=O)Cn1nc(C(C)(C)C)c2ccccc21` [Compound 23], the “CaCi-2 IC50” value in the assay with C. albicans CaCi-2 is “inactive”. Also, the “CaCi-8 IC50” value with C. albicans CaCi-8 was “inactive”.
Take `COC(=O)Cn1nc(C2CC2)c2ccccc21` [Compound 24]: the “CaCi-2 IC50” value in the assay with C. albicans CaCi-2 was “inactive”. In the assay on C. albicans CaCi-8, the “CaCi-8 IC50” value is “inactive”.
In the case of `COC(=O)Cn1nc(C2CCCCC2)c2ccccc21` [Compound 25], the concentration for half-maximal inhibition (IC50) in the assay with C. albicans CaCi-2 was found to be 2.3 ± 0.3 µM; in the assay with C. albicans CaCi-8, 6 ± 1.7 µM.
As for `COC(=O)Cn1nc(-c2cccnc2)c2ccccc21` [Compound 26], the “CaCi-2 IC50” value in the assay on C. albicans CaCi-2 is “inactive”. The “CaCi-8 IC50” value in the assay on C. albicans CaCi-8 is “inactive”.
As for `COC(=O)Cn1nc(-c2cncnc2)c2ccccc21` [Compound 27], the “CaCi-2 IC50” value in the assay on C. albicans CaCi-2 is “inactive”. The IC50 in the assay with C. albicans CaCi-8 turned out to be 21.1 ± 3.3 µM.
As for `COC(=O)Cn1nc(-c2cnco2)c2ccccc21` [Compound 28], the “CaCi-2 IC50” value in the assay with C. albicans CaCi-2 is “inactive”. Also, in the assay on C. albicans CaCi-8, the “CaCi-8 IC50” value was “inactive”.
On to `COC(=O)Cn1nc(-c2cscn2)c2ccccc21` [Compound 29], for which the IC50 in the assay on C. albicans CaCi-2 came out at 12.9 ± 1.7 µM. Moreover, the “CaCi-8 IC50” value in the assay on C. albicans CaCi-8 is “inactive”.
Regarding `COC(=O)Cn1nc(-c2ccc(C)cc2)c2ccccc21` [Compound 30], the half-inhibitory concentration (IC50) in the assay with C. albicans CaCi-2 was 4.8 ± 2.5 µM; in the assay on C. albicans CaCi-8 it was 19.5 ± 14.2 µM.
Consider `COC(=O)Cn1nc(-c2ccc(OC)cc2)c2ccccc21` [Compound 31], for which the IC50 was determined as 4.2 ± 1.7 µM in the assay on C. albicans CaCi-2 and 14.1 ± 6.4 µM in the assay with C. albicans CaCi-8.
Take `COC(=O)Cn1nc(-c2ccc(F)cc2)c2ccccc21` [Compound 32]: the IC50 in the assay on C. albicans CaCi-2 was determined as 8.3 ± 2.8 µM; with C. albicans CaCi-8, 12.3 ± 3.9 µM.
Consider `COC(=O)Cn1nc(-c2ccc(C(F)(F)F)cc2)c2ccccc21` [Compound 33], for which, in the assay on C. albicans CaCi-2, the “CaCi-2 IC50” value is “inactive” and the IC50 is over 26 µM. The “CaCi-8 IC50” value in the assay on C. albicans CaCi-8 is “inactive”.
For the compound `COC(=O)Cn1nc(-c2ccc(C#N)cc2)c2ccccc21` [Compound 34], in the assay with C. albicans CaCi-2, the “CaCi-2 IC50” value is “inactive” and the 50% inhibitory concentration (IC50) was over 26 µM. The concentration for half-maximal inhibition (IC50) in the assay with C. albicans CaCi-8 was 20.5 ± 0.3 µM.
For the compound `COC(=O)Cn1nc(-c2cccc(C)c2)c2ccccc21` [Compound 35], the concentration for half-maximal inhibition (IC50) was 1.1 ± 0.6 µM in the assay with C. albicans CaCi-2 and 1.9 ± 0.9 µM in the assay with C. albicans CaCi-8.
The matching figures for `COC(=O)Cn1nc(-c2cccc(N(C)C)c2)c2ccccc21` [Compound 37]: 0.8 ± 0.1 µM and 2 ± 0.2 µM.
For `COC(=O)Cn1nc(-c2cccc(F)c2)c2ccccc21` [Compound 38], the IC50 in the assay on C. albicans CaCi-2 is 1.7 ± 0.4 µM; with C. albicans CaCi-8, 4.2 ± 4.1 µM.
In the same order, the values of `COC(=O)Cn1nc(-c2ccccc2C)c2ccccc21` [Compound 39] are 5.3 ± 0.5 µM and 7.8 ± 2.6 µM.
In the same order, the values of `COC(=O)Cn1nc(-c2ccccc2OC)c2ccccc21` [Compound 40] are 9.3 ± 3.6 µM and 11.4 ± 1.7 µM.
As to `COC(=O)Cn1nc(-c2cc(OC)cc(OC)c2)c2ccccc21` [Compound 41], the “CaCi-2 IC50” value with C. albicans CaCi-2 was “inactive”. The “CaCi-8 IC50” value with C. albicans CaCi-8 was “inactive”.
